Measured values: paper PMC6508677, “Identification of druggable small molecule antagonists of the Plasmodium falciparum hexose transporter PfHT and assessment of ligand access to the glucose permeation pathway via FLAG-mediated protein engineering” (PLoS ONE, 2019)
“And” between values parts separate entries of the source, which are not always exact repeats. Equal values may be shown once.

Target: T1, hGLUT3 (Homo sapiens, UniProt P11169)
T1 construct: expressed in transfected cells; host or cells: HEK293 (HEK293-FLIP, native hGLUT1 knocked down by shRNA)
T1 sequence (P11169 1-496): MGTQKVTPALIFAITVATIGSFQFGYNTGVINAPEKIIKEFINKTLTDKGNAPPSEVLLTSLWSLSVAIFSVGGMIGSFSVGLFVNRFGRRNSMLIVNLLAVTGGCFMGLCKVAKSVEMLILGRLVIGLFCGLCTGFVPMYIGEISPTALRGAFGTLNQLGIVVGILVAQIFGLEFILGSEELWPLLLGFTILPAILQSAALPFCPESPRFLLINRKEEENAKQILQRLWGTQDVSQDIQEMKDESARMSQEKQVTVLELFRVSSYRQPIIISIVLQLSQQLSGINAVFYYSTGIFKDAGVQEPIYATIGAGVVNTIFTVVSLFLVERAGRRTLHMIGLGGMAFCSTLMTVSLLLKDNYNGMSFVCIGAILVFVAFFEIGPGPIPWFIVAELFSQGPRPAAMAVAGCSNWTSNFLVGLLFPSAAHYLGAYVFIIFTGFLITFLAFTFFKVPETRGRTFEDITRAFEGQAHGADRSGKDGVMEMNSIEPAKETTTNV
Test: 2-DG uptake by HEK293 cells overexpressing hGLUT3
Assay type: cell-based
Conditions: for remaining activity at 0.001 µM: 0.001 µM compound; for remaining activity at 5 µM / inhibition at 5 µM: 5 μM compound; for remaining activity at 40 µM: 40 µM compound; for remaining activity at 80 µM: 80 µM compound; for remaining activity at 160 µM: 160 µM compound; for remaining activity at 225 µM: 225 µM compound; for IC50: IC50 for inhibition of 2-DG uptake
Description: Generation of HEK293 cells overexpressing PfHT and human GLUTs 1–4 were described elsewhere. Briefly, HEK293 cells were transfected with pcDNA3.1 FLII12Pglu-7006 (Addgene), containing the fluorescence resonance energy transfer (FRET) glucose sensor (HEK293-FLIP) and PfHT, human GLUT1 (hGLUT1), hGLUT2, hGLUT3, hGLUT4, hGLUT5 or hGLUT8 using Optifect (Life Technologies) according to manufacturer’s specifications. To increase retention of GLUT8 at the plasma membrane, the dileucine sorting signal E^7E^8XXXLL was modified to R^7R^8XXXLL as described in [17]. Stable transfectants were selected for G418 and hygromycin resistance to select for FRET sensor and hexose transporter, respectively. HEK293-FLIP cells were also used to generate cells stably transfected with FLAG-tagged PfHT (FTPfHT). FLAG tag ([…]) followed by a triple glycine linker and a tobacco etch virus (TEV) protease site (ENLYFQS) followed by a triple glycine linker was added to the N-terminus of PfHT via PCR [18] using Phusion Hot Start II High-Fidelity DNA Polymerase (Fisher Scientific). Single clones were selected by comparing their abilities to transport glucose as assayed via FRET and radiolabeled hexose uptake. In all cell lines, except for HEK293 cells overexpressing hGLUT1 and hGLUT5, native hGLUT1 was knocked down using shRNA as described elsewhere. Transcript levels of the individual GLUTs expressed in each cell line are as described in [13, 15] and in S1 Fig.
Glucose uptake by P. falciparum was performed essentially as described. P. falciparum strain 3D7 was cultured in 100 mm tissue culture dishes (Techno Plastic Products) in a 2% suspension of human erythrocytes and RPMI 1640 medium until reaching > 7.5% parasitemia. Cells were pelleted via centrifugation and resuspended in RPMI 1640 medium. To determine the uptake of radiolabeled glucose into the parasite, parasites were isolated from infected erythrocytes by permeablization with saponin (0.05 w/v), followed by centrifugation, aspiration of supernatant and washing of the pellet 3X with saline solution (135 mM NaCl, 2 mM KCl, 25 mM HEPES, 0.2 mM glucose and 1 mM MgCl2; pH 7.1) to remove cellular debris. WU-1 or DMSO vehicle were added to 100 μl parasites (resuspended in saline) 5 min prior to the addition of 100 μl [^14C]2-DOG (0.2- μCi/ml final concentration). 2-DG uptake was stopped after 2 min by layering the entire reaction over 300 μl of an oil mixture (5:4 mix of dibutyl phthalate / dinonyl phthalate) in Eppendorf tubes and centrifuged at 15,850 × g for 2 mins. The ratio of the estimated intracellular concentration of radiolabel relative to the extracellular concentration were calculated as described. Uptake of radiolabeled hexose into HEK293 cells was measured in glucose-free HBSS as described previously. Briefly, cells were plated at 400,000 cells/well overnight at 37°C in 24-well plates pre-treated with PEI. After 30-min incubation at 37°C in glucose-free HBSS in the presence of vehicle or increasing concentrations of compound, 2-DG uptake was measured in glucose-free HBSS for 4 min at 37°C. Cultures were washed in ice-cold 1X PBS and lysed in 0.1% Triton X-100 in 1X PBS. Radiolabeled hexose uptake was determined by liquid scintillation counting (Ultima Gold, Thermo Fisher) and normalized to total protein per well. Uptake data are plotted as percent uptake relative to vehicle-treated cells. Kinetic analyses were performed using the indicated concentrations of substrate and WU-1, with quenching of uptake after 1 min incubation. Incubation times had been previously determined as being in the linear range of time-dependent radiolabeled hexose uptake (2 min for 2-DG uptake into freed parasites; 2 and 4 min for D-Frc and 2-DG uptake HEK cell lines, respectively). Data were fit by least squares nonlinear regression analysis using GraphPad Prism 6.0 software.

[1] = HEK293, 4 min, GLUT3, read-out: 2-DG uptake (percent uptake relative to vehicle), AVE per experiment
[2] = HEK293, 4 min, GLUT3, 2.5 µM compound, read-out: 2-DG uptake (percent uptake relative to vehicle), AVE per experiment
[3] = HEK293, 4 min, GLUT3, read-out: % Inhibition of 2-DG uptake vs vehicle
[4] = HEK293, 4 min, GLUT3, 10 µM compound, read-out: 2-DG uptake (percent uptake relative to vehicle), AVE per experiment
[5] = GLUT3 cell line, mean/reported value
[6] = individual experiments, GLUT3, Expt 1-3

Compound | IC50 for inhibition of 2-DG uptake, individual experiments (GLUT3, Expt 1-3) | remaining activity at 0.001 µM [1] [%] | remaining activity at 1.25 µM (HEK293, 4 min, GLUT3, 1.25 µM compound, read-out: 2-DG uptake (percent uptake relative to vehicle), AVE per experiment) [%] | remaining activity at 2.5 µM [2] [%] | remaining activity at 5 µM [1] [%] | inhibition at 5 µM [3] [%] | remaining activity at 10 µM [4] [%] | remaining activity at 20 µM (HEK293, 4 min, GLUT3, 20 µM compound, read-out: 2-DG uptake (percent uptake relative to vehicle), AVE per experiment) [%] | remaining activity at 40 µM [1] [%] | remaining activity at 80 µM [1] [%] | remaining activity at 160 µM [1] [%] | remaining activity at 225 µM [1] [%] | IC50 [5] [µM] | IC50 [6] | inhibition at 10 µM (HEK293, 4 min, GLUT3, 10 µM compound, read-out: % Inhibition of 2-DG uptake vs vehicle) [%] | inhibition at 2.5 µM (HEK293, 4 min, GLUT3, 2.5 µM compound, read-out: % Inhibition of 2-DG uptake vs vehicle) [%]
Cc1ccc(S(=O)(=O)CCNC(=O)c2c(-c3c(Cl)cccc3Cl)noc2C)cc1 [WU-1, 3-(2,6-dichlorophenyl)-5-methyl-N-[2-(4-methylbenzenesulfonyl)ethyl]-1,2-oxazole-4-carboxamide] | ambiguous | 100 | 110 | 103 | 99.5 | 0.48 | 103 | 102 | 82.5 | 76.4 | 80 | 75.3 | > 100 | > 225 µM |  | 
COc1c(Br)cc([N+](=O)[O-])c(OC)c1C(=O)NC(=O)Nc1c(C)cccc1Cl [WU-2, 3-(3-bromo-2,6-dimethoxy-5-nitrobenzoyl)-1-(2-chloro-6-methylphenyl)urea] |  | 100 |  | 92.9 | 92.4 | 10 to 12 | 95.1 |  | 91.7 | 81.9 | 68.7 | 77.5 | > 50 | 103 µM and 61.6 µM and 11.4 µM |  | 
COc1cc(/C=N/NC(=O)c2cc(-c3ccccc3)sc2N)cc(OC)c1OC [WU-3, 2-amino-5-phenyl-N'-[(E)-(3,4,5-trimethoxyphenyl)methylidene]thiophene-3-carbohydrazide] |  |  |  |  |  |  |  |  |  |  |  |  |  |  | ≥ 50 | 
COc1cc(/C=C2\COC/C(=C\c3cc(OC)c(OC)c(OC)c3)C2=O)cc(OC)c1OC [WU-5, (3E,5E)-3,5-bis[(3,4,5-trimethoxyphenyl)methylidene]oxan-4-one] |  |  |  |  |  |  |  |  |  |  |  |  |  |  |  | ~20
